Data on 6 molecules can be found in PMC12077799, “Fragment-based drug discovery for transthyretin kinetic stabilisers using a novel capillary zone electrophoresis method” (PLOS One, 2025).

Assay [1] deals with T1, TTR in undiluted normal human reference plasma (Homo sapiens, UniProt P02766).
T1 construct: The TTR in plasma was immunoprecipitated by sheep anti-human prealbumin polyclonal antibody; tissue Precision Biologic Inc., Nova Scotia, Canada
Put plainly: 125I-T4 displacement assay in neat normal human plasma. Type of assay: binding. The settings on record: for IC50: neat normal human plasma, 4-parameter logistic fit. An excerpt: The assay was adapted from one described previously. Briefly, test ligand and ^125I-T4 (Perkin Elmer Inc., Waltham, MA) were mixed with undiluted normal human reference plasma (Precision Biologic Inc., Nova Scotia, Canada). The TTR in plasma was immunoprecipitated by sheep anti-human prealbumin polyclonal antibody (The Binding Site Group Ltd., Birmingham, UK). The immunoprecipitate was washed with buffer and their radioactivity measured with a 2470 WIZARD automatic gamma counter (Perkin Elmer Inc., Waltham, MA). […] Percentage of total radioligand binding for samples of different ligand concentration was then calculated as follows: […]
To calculate IC50 values, percentage of total radioligand binding at different concentration points were entered in SigmaPlot™ 11.0. Titration curves were done in triplicates with a minimum of 5 data points fitted by 4-Parameter Logistic Function.

Assay [2] addresses T2, Human transthyretin (TTR) thyroxine binding sites (Homo sapiens, UniProt P02766).
T2 construct: purchased SCIPAC (Sittingbourne, Kent, UK) P171-1
Put plainly: TTR CZE Free Probe Peak Height Restoration (FPPHR) assay, 8-ANS displacement. Particulars: for FPPHR % at 50 μM: compound 50 μM in Running Buffer; for FPPHR % at 50 μM / FPPHR % tested at 10 µM: 10% minimum for a binder; for FPPHR % tested at 10 µM: compound 10 µM in Running Buffer. Here is the method: CZE assays development and fragment screening were performed on a Beckman P/ACE MDQ capillary electrophoresis system (Beckman Coulter Inc., Brea, CA) operated by 32 Karat™ software. All capillaries (Polymicro Technologies, Phoenix, AZ) used were internally coated with polyvinyl alcohol and of around 30 cm in length, 75 microns in internal diameter. Capillary temperature was maintained at 20 °C by recirculating fluorinated fluid coolant during electrophoresis. Sample trays and buffer trays temperature were maintained at 4°C and ambient respectively. For every electrophoretic run, the capillary was pressure rinsed and prefilled with electrophoresis buffer also known as background electrolyte (termed as Running Buffer hereafter) before injection. After each electrophoretic run, the capillary was rinsed with Running Buffer and H2O by pressure (20 psi for 1 minute). Three Running Buffers (RB), A: 20 mM Tris pH 7.5, 1 mM KCl, 1.62 mM NaCl; B: 20 mM HEPES pH 7.0, 2 mM CaCl2 and C: 20 mM HEPES pH 7.0, 2 mM CaCl2, 1% DMSO were used. All CE traces were analysed by 32Karat™ Software with a built-in automatic peak integration algorithm.
Control 1 Inject Buffer (IB) containing 30 μM 8-ANS was prepared by mixing 1 μL of 3 mM 8-ANS DMSO stock with 99 μL of Running Buffer B in a 0.2 mL PCR tube. Control 2 Inject Buffer was prepared by mixing 1μL of 3 mM 8-ANS DMSO stock with 20 μL of 100 μM tetrameric TTR stock in Running Buffer B and 79 μL of Running Buffer B. The final concentrations (f/c) were 8-ANS 30 μM, TTR 20 μM and 1% DMSO v/v.
The maximum Free Probe Peak Height (Control 1 Peak Height) was determined by Outlet Injection (see Fig 1) of Control 1 with an injection pressure of 0.5 psi for 5 seconds (equivalent to ≈ 20–30 nL). An identical injection of Control 2 provides the minimum Free Probe Peak Height (Control 2 Peak Height) enabling calculation of % of bound and unbound, i.e., free 8-ANS. To determine the 8-ANS peak height in Control 1 and Control 2, the capillary was prefilled with Buffer C and electrophoresis carried out at 10 kV (Normal Polarity, Fig 1) with UV monitoring at 230 nm. For displacement analysis, ligand DMSO stock was diluted in Buffer B and used to fill the capillary as the Running Buffer. Electrophoresis commenced after injection of Control 2, thus the injected 8-ANS-TTR complex migrates inside a capillary filled with the test ligand. The observed 8-ANS peak height is defined as Sample Peak Height and the displaced 8-ANS can be calculated as:
\% of Free Probe Peak Height Restoration= Sample Peak Height−Control 2 Peak Height/Control 1 Peak Height−Control 2 Peak Height

Assay [3] concerns the target T3, Human transthyretin (TTR) (Homo sapiens, UniProt P02766).
T3 construct: purchased SCIPAC (Sittingbourne, Kent, UK) P171-1
Put plainly: Co-crystallisation of TTR-ligand complex, X-ray hit confirmation. The format is binding. Particulars: for Confirmed by X-ray: fragment seen in ligand-omitted difference density at >= 2σ in one or both binding sites, full or partial density. Here is the method: Crystals were grown by vapor diffusion using a published crystallisation cocktail (100 mM HEPES pH 7.5, 200 mM CaCl2, 28% v/v PEG400) at 21 °C [29]. The hanging drop contained 1 μL of crystallisation cocktail, 1 μL of diluted ligand and 1 μL of TTR protein solution (85 μM). […] Crystals were harvested and flash cooled in a N2 cryostream or dipped into liquid ethane without cryoprotectant. Data was collected at Diamond Light Source (Oxon, UK) beamline I24, I04 or I04-1 (Pilatus 6M or ADSC Q315) or the European Synchrotron Radiation Facility (ESRF, Grenoble, France) beamline ID29 (Pilatus 6M-F) or in-house (Bruker X8 Diffractometer with APEXII CCD detector). Crystal unit cell was initially indexed by software MOSFLM [30] and LABELIT [31] within the EDNA [32] automatic data processing workflow. Diffraction image integration was performed by XDS [33] and reflection intensities were scaled by SCALA [34] or by PROTEUM2 if collected in-house. Phases were obtained by molecular replacement method using PHASER [35], 1DVQ from the Protein Data Bank (PDB) was used as the search model. Atomic positions of the initial model were refined by REFMAC5 [36]. Model building and ligand fitting was completed using COOT [37]. Model graphics were generated using CCP4MG [38]. Crystallographic statistics of all structures can be found in S4 Table.

The target of assay [4] is TTR thyroxine binding sites. Particulars: cited from earlier work.
Assay [5] has as its target T2, Human transthyretin (TTR) thyroxine binding sites. Put plainly: TTR CZE Free Probe Peak Height Restoration (FPPHR) assay, 8-ANS displacement. Particulars: 30 μM 8-ANS with 20 μM TTR.
A further assay deals with T4, TTR (Homo sapiens, UniProt P02766).
T4 construct: purchased SCIPAC (Sittingbourne, Kent, UK) P171-1
Put plainly: Isothermal titration calorimetry (ITC). The settings on record: for Kd: 25 °C, PBS pH 7.8, 3% DMSO. The format is binding. The procedure: All ITC experiments were conducted on an iTC200 calorimeter (GE Healthcare), and the settings were 25 °C, stir at 1000 RPM, 1–2 μL injection spaced with 100–150 seconds, reference power: 6 μcal/sec. Isotherms were fitted using ORIGIN 7 software (OriginLab, MA, USA). To prepare TTR ITC protein solution (5 mL), purified and freeze-dried human TTR was weighted and dissolved in 310 μL of pure water. The reconstituted protein solution was then desalted by spin column (Bio-Rad, Bio-Gel P6) and the eluted volume was transferred to a 15mL falcon tube. The protein solution was further diluted with 10x Phosphate Buffered Saline (PBS, 500 μL), DMSO (150 μL) and water, (f/c: 4.3 mM Na2HPO4, 137 mM NaCl, 2.7 mM KCl, 1.47 mM KH2PO4, 3% DMSO v/v, TTR 19.35–25 μM, pH 7.8). UV A260/280 was measured to obtain the actual protein concentration using a calculated extinction coefficient of 18450 M^-1 cm^-1. To prepare ligand ITC solution (1 mL), 30 μL of ligand stock in DMSO was diluted with 10x PBS (100 μL) and water (f/c: 4.3 mM Na2HPO4, 137 mM NaCl, 2.7 mM KCl, 1.47 mM KH2PO4, 3% DMSO v/v, Ligand 280–600 μM, pH 7.8).
For orientation: In ITC the heat of successive injections is recorded.

Where [6] appears, read: read-out: Mean 125I-T4 IC50 ± SD (N = 3).
Setting [7] is: N = number of non-hydrogen atoms.

Where two headings read alike, the source gives them in different places.

As to `Nc1n[nH]c2nccc(-c3ccccc3)c12` [CDS014361], the concentration for half-maximal inhibition (IC50) (usually the midpoint of a concentration-inhibition curve) in assay [1] (setting [6]) is 100 ± 11 µM. In assay [2], the “FPPHR % at 50 μM” value was 36.17% tested at 50 µM. In addition, the “Confirmed by X-ray” value in assay [3] was “Yes 9H7L”.
`O=S(=O)(O)c1cccc2cccc(Nc3ccccc3)c12` [Compound 8-ANS, 8-Anilino-1-Naphthalenesulfonic acid]: the Kd is 1.05 µM in assay [4] (read-out: Kd1, 8-ANS at TTR thyroxine binding sites); 4.79 µM in assay [4] (read-out: Kd2, 8-ANS at TTR thyroxine binding sites); 1 to 5 µM in assay [4] (read-out: previously reported Kd values). Also, the “% of 8-ANS bound to TTR, deduced from free 8-ANS peak areas” value in assay [5] is about 35%. The “% of 8-ANS bound to TTR, deduced from free 8-ANS peak heights” value in assay [2] (30 μM 8-ANS with 20 μM TTR) is given as “around 60%”.
Regarding `Cc1n[nH]c(-c2ccnc3ccccc23)n1` [Compound 71575026], the IC50 in assay [1] (setting [6]) turned out to be 238 ± 118 µM. The “FPPHR % tested at 10 µM” value in assay [2] was 17.07% tested at 10 µM. For the same molecule, the “Confirmed by X-ray” value in assay [3] is reported as “Yes 9H7N”.
As for `Cc1n[nH]c(C)c1-c1cccc2cccnc12` [Compound 94320297], the half-inhibitory concentration (IC50) in assay [1] (setting [6]) came to 18.9 ± 6.14 µM. Besides, in assay [2], the “FPPHR % tested at 10 µM” value came out at 33.32% tested at 10 µM and the “FPPHR % at 50 μM” value turned out to be 59.77%. The “Confirmed by X-ray” value in assay [3] is given as “Yes 9H7K”. The Kd on TTR (read-out: ITC Kd1 ± SD (N = 3)) amounted to 0.064 µM. Besides, at TTR (read-out: ITC Kd2 ± SD (N = 3)), the Kd turned out to be 0.91 µM. Also, at TTR (setting [7]), the “Kd1 LE (Ligand Efficiency, ΔG/N)” value is 0.58 kcal/mol and the “Kd2 LE (Ligand Efficiency, ΔG/N)” value worked out at 0.48 kcal/mol.
As for `Nc1nc(-c2cccc3cccnc23)c2cn[nH]c2n1` [Compound 96299361], the IC50 in assay [1] (setting [6]) came out at 105 ± 16.8 µM. In addition, the “FPPHR % tested at 10 µM” value in assay [2] worked out at 23.20% tested at 10 µM. For the same molecule, in assay [3], the “Confirmed by X-ray” value was “Yes 9H7M”.
As to `NS(=O)(=O)c1cc(Cl)cc(Cl)c1` [SFL000006, 3,5-Dichlorobenzenesulphonamide], the “125I-T4 displacement at maximal concentration” value in assay [1] (14.3mM, no plateau reached) is on record as “≈ 60%”. For the same molecule, the concentration for half-maximal inhibition (IC50) in assay [1] came to 8880 ± 3670 µM. The “FPPHR % at 300 μM ± SD (N = 3)” value in assay [2] (fragment 300 μM in Running Buffer, injected 30 μM 8-ANS / 20 μM TTR, hit cut-off 10%) was 12.18 ± 6.63 (N = 4) %. Also, the “Confirmed by X-ray” value in assay [3] is “Yes 1 Site, Partial, 9H7A”. In addition, in assay [3] (in words), the “ligand electron density, binding sites occupied in co-crystal structure” value is given as “only observed in one site”.
